Results on 13 compounds are retold here after article PMC9311641, “Antitubercular, Cytotoxicity, and Computational Target Validation of Dihydroquinazolinone Derivatives” (Antibiotics, 2022).

Converted amounts (≈) assume the structure as drawn. “And” between values parts separate entries of the source, which are not always exact repeats. Identical values can stand only once.

What all share (type): cell-based
Data set [1] has as its system Mycobacterium tuberculosis H37Rv (ATCC 25177). As to the kind of experiment: Whole-cell anti-TB MIC, Resazurin Microplate Assay (REMA). The following applies: MTB H37Rv; for MIC: Mycobacterium tuberculosis, REMA, read-out: Level of Activity (MIC), Susceptible (H37Rv).
The nature of data set [2]: MTT cytotoxicity assay. The following applies: mean ± SD of three replicates. On the procedure: (§1) Fibroblast cells were cultured in Iscove’s Modified Dulbecco’s Medium (Euro Clone, Italy) as recommended by ATCC. The media was supplemented with 10% heat-inactivated fetal bovine serum (FBS) (Ebsdorfergrund, Germany), 1% of 2 mM L-glutamine, 100 U/mL penicillin, and 100 µg/mL streptomycin. According to the cells’ growth profile, fibroblast-seeding density was 1 × 10^5 cell/well. Cell viability was determined by trypan blue exclusion using a hemocytometer.
(§2) The MTT colorimetric assay was used to assess the effect of the synthesized compounds on the viability of the fibroblast cell lines. […] A volume of 10 mL of the culture media was added, and the cell suspension was centrifuged at 1000 rpm for 10 min. The pellets were resuspended in a 10 mL medium to make a single-cell suspension. […] The cell suspension was diluted to give the optimal seeding density, and 100 µL of the cell suspension was plated in a 96-well plate. Cells were cultured at 37 °C in a humidified atmosphere of 5% CO2. After 24 h incubation, the cells were treated with 100 µM of the synthesized compounds (diluted in culture media to yield the required concentration) and then incubated for 72 h. At the end of the exposure time, 15 µL of MTT stock solution (5 mg/mL in sterile PBS, pH 7.4) (Promega, Madison, WI, USA) was added to each well and incubated for 3 h. After that, 100 µL of solubilizing stop solution was added to each well to solubilize the dark violet formazan crystals. The optical densities at 570 nm were then measured using a micro-plate reader (Biotek, Winooski, VT, USA), and the percentage of cell viability was calculated with respect to a control corresponding to untreated cells.

For data set [3], the system named is MDR strains of Mycobacterium tuberculosis. In words: Whole-cell anti-TB MIC, Resazurin Microplate Assay (REMA). The settings on record: for MIC: Mycobacterium tuberculosis, read-out: Level of Activity (MIC), MDR; for Level of Activity (MIC), MDR: MDR MTB strains, REMA.
For data set [4], the system named is normal human skin fibroblast cells (CCD-1064SK). As to the kind of experiment: MTT cytotoxicity assay. The settings on record: 72 h, mean ± SD of three replicates. On the procedure: as §1, §2
[5] abbreviates: human, CCD-1064SK normal human skin fibroblast cells.

For `COc1ccc(C2NC(=O)c3ccccc3N2)cc1` (centres unmarked) [Compound 3a], the minimum inhibitory concentration (MIC) was 64 µg/mL (≈ 252 µM) in data set [1] and greater than 128 µg/mL in data set [3]. This compound also returned a cytotoxicity at 72 h, 100 µM in data set [2] (normal human fibroblast cells) of 28.8 ± 0.6%.

`N#Cc1ccc(C2NC(=O)c3ccccc3N2)cc1` (centres unmarked) [Compound 3b]: in data set [1], the MIC is greater than 64 µg/mL. The compound also showed a cytotoxicity at 72 h, 100 µM in data set [2] (setting [5]) of 19.5 ± 5%. In addition, the “Level of Activity (MIC), MDR” value in data set [3] is “No activity”.

`O=C1NC(c2cccc(O)c2)Nc2ccccc21` (centres unmarked) [Compound 3c]: the MIC in data set [1] was 8 µg/mL (≈ 33.3 µM); in data set [3], greater than 32 µg/mL. Besides, the cytotoxicity at 72 h, 100 µM in data set [2] (setting [5]) was 58.5 ± 1.1%.

As to `O=C1NC(c2ccc(OC(F)(F)F)cc2)Nc2ccccc21` (centres unmarked) [Compound 3d], in data set [1], the MIC is greater than 64 µg/mL. This compound also had a cytotoxicity at 72 h, 100 µM in data set [2] (setting [5]) of 47.6 ± 1.6%. Also, the “Level of Activity (MIC), MDR” value in data set [3] is on record as “No activity”.

For `O=C1NC(c2cccc(I)c2)Nc2ccccc21` (centres unmarked) [Compound 3e], the MIC in data set [1] was found to be 128 µg/mL (≈ 366 µM). This compound showed a cytotoxicity at 72 h, 100 µM in data set [2] (setting [5]) of 72 ± 8.3%. The “Level of Activity (MIC), MDR” value in data set [3] is on record as “No activity”.

In the case of `O=C1NC(c2ccc(Cl)cc2)Nc2ccccc21` (centres unmarked) [Compound 3f], the MIC in data set [1] is greater than 128 µg/mL. In addition, the cytotoxicity at 72 h, 100 µM in data set [2] (setting [5]) turned out to be 57.6 ± 3.7%. Moreover, the “Level of Activity (MIC), MDR” value in data set [3] was “No activity”.

In the case of `COc1ccc(C2NC(=O)c3ccccc3N2)cc1OC` (centres unmarked) [Compound 3g], in data set [1], the MIC is 64 µg/mL (≈ 225 µM). The cytotoxicity at 72 h, 100 µM in data set [2] (setting [5]) stood at 32.5 ± 11%. In addition, the “Level of Activity (MIC), MDR” value in data set [3] was “No activity”.

Turning to `CN(C)c1ccc(C2NC(=O)c3ccccc3N2)cc1` (centres unmarked) [Compound 3h], the MIC in data set [1] is greater than 128 µg/mL. The compound also displayed a cytotoxicity at 72 h, 100 µM in data set [2] (setting [5]) of 54.6 ± 2.8%. For the same compound, the “Level of Activity (MIC), MDR” value in data set [3] is given as “No activity”.

Regarding `O=C1NC(c2cccc([N+](=O)[O-])c2)Nc2ccccc21` (centres unmarked) [Compound 3i], the MIC in data set [1] is greater than 64 µg/mL. The same compound gave a cytotoxicity at 72 h, 100 µM in data set [2] (setting [5]) of 24.1 ± 3.9%. Also, in data set [3], the “Level of Activity (MIC), MDR” value is on record as “No activity”.

With `O=C1NC(c2ccc(F)cc2)Nc2ccccc21` (centres unmarked) [Compound 3j], the MIC in data set [1] is greater than 64 µg/mL. For the same compound, the cytotoxicity at 72 h, 100 µM in data set [2] (setting [5]) is 44.1 ± 11.5%. In addition, the “Level of Activity (MIC), MDR” value in data set [3] is “No activity”.

In the case of `O=C1NC(c2c[nH]cn2)Nc2ccccc21` (centres unmarked) [Compound 3k], in data set [1], the MIC against susceptible H37Rv M. tuberculosis strain came to 4 µg/mL (≈ 18.7 µM) and the MIC is 4 µg/mL (≈ 18.7 µM). In data set [2] (normal human fibroblast cells), this compound came in with a cytotoxicity at 72 h, 100 µM of 19.2 ± 4.9%. The MIC in data set [3] was 16 µg/mL (≈ 74.7 µM).

For the compound `O=C1NC(c2cc(Br)ccc2F)Nc2ccccc21` (centres unmarked) [Compound 3l, 2-(5-bromo-2-fluorophenyl)-2,3-dihydroquinazolin-4(1H)-one], in data set [1], the MIC against susceptible H37Rv M. tuberculosis strain worked out at 2 µg/mL (≈ 6.23 µM). Also, the results for the MIC in data set [1] and in data set [3] were 2 µg/mL (≈ 6.23 µM) and greater than 64 µg/mL, respectively. The cytotoxicity at 72 h, 100 µM in data set [2] (setting [5]) was found to be 36%. Also, the “Cytotoxicity (%) at 100 µM” value in data set [4] is given as 36.3 ± 4.2%.

Consider `COc1cc([N+](=O)[O-])ccc1C1NC(=O)c2ccccc2N1` (centres unmarked) [Compound 3m], for which the MIC against susceptible H37Rv M. tuberculosis strain in data set [1] is 2 µg/mL (≈ 6.68 µM). The minimal inhibitory concentration (MIC) in data set [1] is 2 µg/mL (≈ 6.68 µM); in data set [3] it was greater than 64 µg/mL. Moreover, the cytotoxicity at 72 h, 100 µM in data set [2] (setting [5]) was determined as 31%. For the same compound, the “Cytotoxicity (%) at 100 µM” value in data set [4] was 30% and 30.9 ± 8.8%.
